Test [1] concerns isolated mouse islets. The test can be described thus: Insulin secretion from isolated mouse islets. Format: cell-based, mouse (C57BL/6J). Conditions: for insulin secretion from isolated islets: 2 h.
A further test relates to INS-1E cells. The experiment in a line: Insulin secretion from INS-1E cells. It is filed as cell-based, rat. Conditions: 100 nM, 1 h, 37 °C, 16.8 mM glucose, 5 × 10^4 cells/well; HTRF; 3 technical replicates (Fig. 1E). On the procedure: (§1) Cell culture and hormone secretion
(§2) The INS-1E cells were cultured in RPMI 1640 supplemented with 10% FBS, the αTC1-9 cells were cultured in low glucose DMEM supplemented with 10% FBS and the MIN6 cells were cultured in high glucose DMEM supplemented with 10% FBS. Cells were grown in 96-well plates at a density of 5 × 10^4 cells (INS-1E and αTC1-9) or 2 × 10^4 cells (MIN6) per well. After preincubation for 30 min at 37 °C in KRBB, the cells were incubated with either 0.1% DMSO or compounds for 1 h at 37 °C in KRBB containing either 16.8 mM or 2.8 mM glucose. […] For co-culturing of INS-1E and αTC1-9 cells, RPMI 1640 supplemented with 10% FBS was used, both cell densities were 2.5 × 10^4 cells per well in 96-well plates.
For orientation: Time-resolved FRET reads energy transfer from a long-lived donor to a nearby acceptor.

The subject of another test is MIN6 cells. The experiment in a line: Insulin secretion from MIN6 cells. It is filed as cell-based, mouse. To be noted: 100 nM, 1 h, 37 °C, 16.8 mM glucose, 2 × 10^4 cells/well; HTRF; 3 technical replicates (Fig. 1F). As for the experimental part:
as §1, §2

In test [2] the test system is isolated mouse islets. The test can be described thus: Glucagon secretion from isolated mouse islets. Format: cell-based, mouse (C57BL/6J). On the procedure:
Hormone secretion from isolated islets
Islets were isolated from anesthetized male C57BL/6J mice (8 wk old). 1 mg/mL Collagenase P (Roche, #11213873001) solution was injected into the pancreas via the bile duct, and the pancreas was digested at 37 °C for 15 min. The mixture was centrifuged at 800 rpm for 3 min to collect the precipitate, which was then washed three times with HBSS (5.4 mM KCl, 0.3 mM Na2HPO4, 0.4 mM KH2PO4, 4.2 mM NaHCO3, 1.3 mM CaCl2, 0.5 mM MgCl2, 0.6 mM MgSO4, 137 mM NaCl, 5.6 mM D-glucose, pH 7.4). Then, the precipitate was re-suspended in HBSS and filtered through a 70 μm filter to obtain islets. The detached islets were cultured overnight in RPMI 1640 supplemented with 10% fetal bovine serum (FBS). The islets were transferred to 48-well plates and starved with KRBB (118.5 mM NaCl, 2.54 mM CaCl2, 1.19 mM KH2PO4, 4.74 mM KCl, 25 mM NaHCO3, 1.19 mM MgSO4, 10 mM HEPES, pH 7.4) containing 0.5% BSA for 60 min. Subsequently, the islets were incubated with 0.1% dimethyl sulfoxide (DMSO) or compounds for a duration of 2 h at 37 °C in 1 mL KRBB containing 16.8 mM or 2.8 mM glucose. Supernatants were collected, and the insulin concentrations were measured using HTRF Insulin kit (Cisbio, #62INSPEC) and an Envision Plate Reader (PerkinElmer).

In another test the test system is αTC1-9 cells. The test can be described thus: Glucagon secretion from αTC1-9 cells. Format: cell-based, mouse. Conditions: 100 nM, 1 h, 16.8 mM glucose, 5 × 10^4 cells/well; HTRF; 3 technical replicates (Fig. 3F). As for the experimental part:
as §1, §2

For test [3], the system named is co-culture of INS-1E and αTC1-9 cells. The experiment in a line: Glucagon secretion from co-cultured INS-1E and αTC1-9 cells. Format: cell-based, rat (INS-1E) and mouse (αTC1-9). To be noted: 100 nM, 1 h, 16.8 mM glucose, both 2.5 × 10^4 cells/well (Fig. 3G). As for the experimental part: as §1, §2
The test system is the same in test [4]. The experiment in a line: Insulin secretion from co-cultured INS-1E and αTC1-9 cells. It is filed as cell-based, rat (INS-1E) and mouse (αTC1-9). To be noted: 1 h. As for the experimental part:
as §1, §2
Specific sequences of shRNAs (Table 1) targeting GCGR or GLP-1R mRNA were constructed into pLKO.1 puro lentiviral vector (Addgene, #8453). Lentiviral vectors and packaging vectors were transfected into HEK293T cells by FuGENE HD Transfection Reagent (Promega, #E2312) to produce virus particles. INS-1E cells were seeded onto 6-well plates at a density of 5 × 10^5 cells per well and incubated with viruses and 5 μg/mL polybrene for 48 h. Transfected INS-1E cells were collected for real-time qPCR and co-culture experiments.

Test [5] concerns C57BL/6J mice. The experiment in a line: Oral glucose tolerance test (OGTT), blood glucose. Conditions: AVP 1 mg/kg i.p., 15 min before 1.5 g/kg oral glucose; 8 mice/group (Fig. 5A, 5B). It is filed as in vivo, mouse. On the procedure: (§3) Oral glucose tolerance test and insulin detection
(§4) For oral glucose tolerance test (OGTT), mice were fasted overnight and then given either 0.1% DMSO in normal saline (vehicle) or 1 mg/kg AVP and 10 mg/kg Exendin (9–39) (n = 8 per treatment group) via intraperitoneal injection. A glucose bolus was delivered (1.5 g/kg orally) 15 min later. Blood was collected from a tail nick at designated time points, and plasma glucose levels were determined with a glucose meter. To detect insulin level, blood was collected from the retro-orbital plexus of mice 15 min after glucose administration (n = 4 per treatment group) and detected with an ELISA kit for mouse insulin (Crystal Chem, #90080).

Test [6] has as its system C57BL/6J mice. The test can be described thus: Plasma insulin in OGTT. Format: in vivo, mouse. Conditions: AVP 1 mg/kg i.p.; blood 15 min after glucose administration; ELISA; 4 mice/group (Fig. 5C). On the procedure:
as §3, §4
In general terms: In an ELISA, binding on a coated surface is turned into a signal by an enzyme label.

The next test concerns islet β cells. Conditions: cytokine-induced apoptosis; cited from earlier work. An excerpt:
(§5) AVP regulates the hypothalamic-pituitary-adrenal (HPA) axis, stimulating the release of corticotropin-releasing hormone (CRH) through V1bR activation, thereby promoting CRH-induced insulin secretion.

Test [7] deals with mouse and rat pancreas, and isolated mouse islets. Conditions: mouse and rat pancreas, and isolated mouse islets; cited from earlier work.
Description: as §5

Test [8] concerns pancreas of mouse and rat, and the α cell line InR1G9. To be noted: cited from earlier work. The source says:
However, this regulatory mechanism is impaired in individuals with type 1 diabetes. Compared to wild-type mice, V1b receptor k ...

“Also recorded” adds a separate entry of the source. Bridge positions count the residues as written; N and C are the ends. Ends that are not written are not given here.

The source of these data is paper PMC11365140 (Cell & Bioscience, 2024).

For the substance “Arginine vasopressin (CYFQNCPRG-NH2; disulfide 1-6; ends not checked; UniProt P01185 20-28, looked up) [AVP, neuropeptide composed of nine amino acids]”, the “insulin secretion from isolated islets” value in the test with isolated mouse islets [1] (100 nM, AVP compared with GLP-1, 3 technical replicates (Fig. 1D)) is reported as “stimulated similar level of glucose-dependent insulin secretion from freshly isolated islets as GLP-1”; with isolated mouse islets [1] (various concentrations of AVP, 37 °C, 10 islets/well, 16.8 mM glucose KRBB, HTRF, mean ± SEM, 3 technical replicates (Fig. 1A)), “induced insulin secretion in a dose-dependent manner in high glucose condition”. Moreover, in the test on isolated mouse islets [1] (100 nM, low (2.8 mM) and high (16.8 mM) glucose (Fig. 3D, 3E)), the “insulin secretion from isolated islets, glucose dependence” value is “only induced insulin secretion from the islets in high-glucose medium”. Moreover, the “insulin secretion from INS-1E cells” value with INS-1E cells was “failed to induce insulin release; also recorded: could not directly induce insulin secretion from INS-1E cells”. For the same substance, the “insulin secretion from MIN6 cells” value in the test with MIN6 cells is “failed to induce insulin release”. The “glucagon secretion from isolated islets, glucose dependence” value in the test with isolated mouse islets [2] (AVP (100 nM), low (2.8 mM) and high (16.8 mM) glucose (Fig. 3C)) was “induced glucagon secretion from the isolated islets in low- and high-glucose conditions”. Besides, in the test on isolated mouse islets [2] (various concentrations of AVP, 2 h, 16.8 mM glucose, 10 islets/well, 3 technical replicates (Fig. 3A)), the “glucagon secretion from isolated islets” value is listed as “induced dose-dependent secretion of glucagon”. For the same substance, in the test with αTC1-9 cells, the “glucagon secretion from αTC1-9 cells” value was “could induce glucagon release from αTC1-9 cells”. In addition, the “glucagon secretion from co-culture” value in test [3] was “induce secretion of glucagon and insulin in high-glucose condition”. In [4] (100 nM, 16.8 mM glucose, both 2.5 × 10^4 cells/well (Fig. 3H)), the “insulin secretion from co-culture” value is “induce secretion of glucagon and insulin in high-glucose condition”. The “AVP-induced insulin secretion from co-culture after Gcgr knockdown” value in test [4] (INS-1E infected with shRNA-Gcgr, AVP (1 nM), 16.8 mM glucose (Fig. 4K)) is “no significant effect”. The “AVP-induced insulin secretion from co-culture after Glp1r knockdown” value in [4] (INS-1E infected with shRNA-Glp1r, AVP (1 nM), 16.8 mM glucose (Fig. 4L)) is “significantly attenuated AVP-induced insulin secretion”. In addition, the “blood glucose levels during OGTT” value in the test with C57BL/6J mice [5] is given as “significantly lowered blood glucose levels during the OGTT”. The “plasma insulin in OGTT” value in the test with C57BL/6J mice [6] is listed as “significantly stimulated the release of insulin”. For the same substance, the “protection of islet β cells” value in the test on islet β cells is “confer protection on islet β cells against cytokine-induced apoptosis”. Moreover, the insulin secretion entry in test [7] is given as “enhance insulin secretion”. The glucagon secretion entry in test [8] is on record as “stimulate glucagon secretion”.
